# Test results published in PubChem BioAssay AID328 (DTP/NCI, 2004).
# Values joined by “and” are separate entries in the source; they are usually repeats but may differ in a detail not shown here. Equal entries are not always repeated. Toxic doses and inconclusive results are not listed.
# Tested on: BDF1 mice, P388 leukemia ip, median survival T/C
# Experiment: NCI In Vivo Anticancer Drug Screen. Data for tumor model P388 Leukemia (intraperitoneal) in B6D2F1 (BDF1) mice
# Conditions: endpoint: median survival time, higher = longer survival
# Outline: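 Survival ratio, drug arm over vehicle arm, in mice with a transplanted tumour.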
# [1] = dose: 100.0 mg/kg/injection, schedule: Q01DX009 (ip), vehicle: saline with Tween-80
# [2] = dose: 200.0 mg/kg/injection, schedule: Q01DX009 (ip), vehicle: saline with Tween-80
smiles,measurement,setting,value
NC1CONC1=O (stereo unspecified),T/C,"dose: 25.0 mg/kg/injection, schedule: Q01DX009 (ip), vehicle: saline",90 % of control
same,T/C,"dose: 25.0 mg/kg/injection, schedule: Q04DX003 (ip), vehicle: saline",104 % of control
same,T/C,"dose: 50.0 mg/kg/injection, schedule: Q01DX009 (ip), vehicle: saline",95 % of control
same,T/C,"dose: 50.0 mg/kg/injection, schedule: Q04DX003 (ip), vehicle: saline",100 % of control
same,T/C,"dose: 100.0 mg/kg/injection, schedule: Q01DX009 (ip), vehicle: saline",90 % of control
same,T/C,"dose: 100.0 mg/kg/injection, schedule: Q04DX003 (ip), vehicle: saline",104 % of control
same,T/C,"dose: 200.0 mg/kg/injection, schedule: Q04DX003 (ip), vehicle: saline",100 % of control
same,T/C,"dose: 400.0 mg/kg/injection, schedule: Q01DX009 (ip), vehicle: saline",100 % of control
same,T/C,"dose: 400.0 mg/kg/injection, schedule: Q04DX003 (ip), vehicle: saline",100 % of control
CC(O)C(c1ccccc1)S(C)(=O)=O (stereo unspecified),T/C,"dose: 100.0 mg/kg/injection, schedule: Q04DX003 (ip), vehicle: Klucel (hydroxypropylcellulose) (HPC)",95 % of control
same,T/C,"dose: 200.0 mg/kg/injection, schedule: Q04DX003 (ip), vehicle: Klucel (hydroxypropylcellulose) (HPC)",104 % of control
same,T/C,"dose: 400.0 mg/kg/injection, schedule: Q04DX003 (ip), vehicle: Klucel (hydroxypropylcellulose) (HPC)",91 % of control
O=[N+]([O-])c1ccc(-c2nnc3ncccn23)cc1,T/C,"dose: 50.0 mg/kg/injection, schedule: Q01DX009 (ip), vehicle: saline with Tween-80",102 % of control
same,T/C,[1],98 % of control
same,T/C,[2],90 % of control
COC(=O)c1cccc(OC)c1C(=O)OC,T/C,"dose: 100.0 mg/kg/injection, schedule: Q04DX002 (ip), vehicle: saline with Tween-80",104 % of control
same,T/C,"dose: 200.0 mg/kg/injection, schedule: Q04DX002 (ip), vehicle: saline with Tween-80",102 % of control
CCN1CCCC(Nc2cc(C)nc(Nc3nc4cc(Cl)c(Cl)cc4[nH]3)n2)C1 (stereo unspecified),T/C,"dose: 1.56 mg/kg/injection, schedule: Q01DX009 (ip), vehicle: Klucel (hydroxypropylcellulose) (HPC)",100 % of control
same,T/C,"dose: 3.12 mg/kg/injection, schedule: Q01DX009 (ip), vehicle: Klucel (hydroxypropylcellulose) (HPC)",90 % of control
same,T/C,"dose: 6.25 mg/kg/injection, schedule: Q01DX009 (ip), vehicle: Klucel (hydroxypropylcellulose) (HPC)",100 % of control
O[C@H](CN1CC1)[C@@H](O)CN1CC1,T/C,"dose: 62.5 micrograms/kg/injection, schedule: Q01DX010 (ip), vehicle: saline",235 % of control
same,T/C,"dose: 125.0 micrograms/kg/injection, schedule: Q01DX010 (ip), vehicle: saline",230 % of control and 186 % of control
same,T/C,"dose: 250.0 micrograms/kg/injection, schedule: Q01DX010 (ip), vehicle: saline",227 % of control and 187 % of control
same,T/C,"dose: 500.0 micrograms/kg/injection, schedule: Q01DX010 (ip), vehicle: saline",116 % of control and 122 % of control
COc1ccc(C(O)(CS(C)=O)c2cccs2)cc1 (stereo unspecified),T/C,[1],107 % of control
same,T/C,[2],99 % of control
